Counter-ions that a name gives are not always drawn.
Test: Physical stability of the crystalline salt at elevated temperature and humidity
Type: physicochemical

stability at elevated temperature and humidity (elevated temperature and humidity (general statement)): unexpectedly stable
physical stability (solid crystalline salt, 40° C. at 75% relative humidity for 2 weeks): physically stable
Structure (SMILES): N[C@@H](CC(=O)N1CCn2c(nnc2C(F)(F)F)C1)Cc1cc(F)c(F)cc1F [Bis-[(2R)-4-oxo-4-[3-(trifluoromethyl)-5,6-dihydro[1,2,4]triazolo[4,3-a]pyrazin-7(8H)-yl]-1-(2,4,5-trifluorophenyl)butan-2-amine]phosphoric acid trihydrate salt]

From patent US20140336196A1, “PHOSPHORIC ACID SALTS OF SITAGLIPTIN” (Merck Sharp & Dohme Corp., priority 2011, published 2014)
